Where a SMILES comes first, the peptide text is derived from it. Bridges are numbered along the chain shown (N, C = ends). [ ]: non-standard residue; d: D form.
Assays:
human MC4R [1] = assay: pGlo cAMP accumulation assay; assay type: cell-based; details: cells transiently expressing human MC4R, 1 and 10 μM, three independent experiments in technical triplicate
Experimental: (§1) Following functional analysis at MC4R, we were intrigued to know how selective Pr4LP1 and Ar3LP1 were for MC4R vs other melanocortin receptors.
(§2) Figure 6 Selectivity determination of Pr4LP1 and Ar3LP1 peptides at MC4R vs MC1R and MC3R. […] Data (not normalized) are represented as mean ± SEM from three independent experiments performed in technical triplicate.
(§3) Cells transiently expressing human MC1R, MC3R, or MC4R were incubated for 24 h. Afterward all contents of each well were carefully removed, and cells were then equilibrated in cAMP buffer [1× HBSS, 24 mM HEPES, 0.1% (w/v) BSA, 3.96 mM NaHCO3, 1 mM MgSO4, 1.3 mM CaCl2 dihydrate], supplemented with firefly D-luciferin free acid (0.45 mg/mL) (NanoLight Technology). 90 μL of cAMP buffer was added to all wells, and the 96-well plate was then incubated (28 °C, 1 h). Bioluminescence was measured using the CLARIOstar Plus Plate Reader (BMG LabTech). Prior to injecting the treatment ligands, approximately 5–10 basal readings were performed until stabilization was reached. Peptide ligands (10 μL) were added to the well. Bioluminescence was measured for a total of 30 cycles (1 min per cycle, 1 s integration time, without filter, a fixed gain of 3000, and autofocus).

human MC1R = assay: pGlo cAMP accumulation assay; assay type: cell-based; details: cells transiently expressing human MC1R, up to 10 μM, three independent experiments in technical triplicate
Experimental: as §1, §2, §3

human MC3R = assay: pGlo cAMP accumulation assay; assay type: cell-based; details: cells transiently expressing human MC3R, up to 10 μM, three independent experiments in technical triplicate
Experimental: as §1, §2, §3

MC4R over MC1R and MC3R = details: Figure S6
human MC4R [2] = molecular target: T1, human MC4R (Homo sapiens, UniProt P32245); assay: nanoluciferase complementation assay MC4R-SmBit / β-arrestin-2-LgBit (β-arrestin-2 recruitment); assay type: cell-based; details: for increased potency in β-arrestin-2 recruitment as compared to α-MSH: ratio of EC50 values, nanoluciferase complementation MC4R-SmBit/β-arrestin-2-LgBit; for Emax: read-out: increase in efficacy (Emax) of β-arrestin-2 recruitment compared to α-MSH
T1 construct: expressed in transfected cells; host or cells: HEK293T, transient co-transfection
Experimental: (§4) Figure 5 Biosensor characterization of Pr4LP1 and Ar3LP1 peptides acting as agonists at MC4R. […] Data are represented as means ± SEM for all experimental replicates and were performed in triplicate from n ≥ 3 independent experiments.
In an attempt to quantify signaling bias using the Black–Leff operational model by calculating ΔΔlog(τ/KA),[27]–[29] we identified a trend for preferred β-arrestin-2 recruitment over Gαs coupling, albeit not significant (data not shown).
(§5) The plasmid constructs used to show interactions between human MC4R and Gαs protein and/or β-arrestin-2 were designed with fused SmBit and LgBit proteins, that upon complementation form the fully functional nanoluciferase enzyme that can produce detectable bioluminescence upon addition of the substrate furimazine. For the Gαs coupling, we used a LgBit fused at the C-terminus of MC4R (MC4R-LgBit) and cotransfected with the Gαs-SmBit construct. For the β-arrestin-2 recruitment assay, we used a C-terminally fused MC4R-SmBit and the β-arrestin-2-LgBit constructs. The cotransfection ratio was 1:10 (Gαs/β-arrestin-2/receptor). Cells were harvested, washed, and resuspended in fresh medium 24 h post-transfection. Approximately 5 × 10^4 cells/well were distributed in precoated 96-well white plates and allowed to adhere overnight. On an experimental day, cells were washed with HBSS and maintained in HBSS (80 μL/well). The furimazine substrate for the luciferase (50×) stock was diluted at 1× with HBSS, and 10 μL/well was added to all assay wells and incubated for 12 min before addition of ligands. Ligand dilutions were prepared at 10× final concentration in HBSS, and 10 μL/well was added to the assay wells. Plates were read 5 min following ligand addition using a ClarioStar equipped with a nanoluc-compatible optic module (BMG Labtech). […] EC50/Emax values were calculated via a nonlinear regression analysis.
Target sequence in this assay (P32245 whole entry): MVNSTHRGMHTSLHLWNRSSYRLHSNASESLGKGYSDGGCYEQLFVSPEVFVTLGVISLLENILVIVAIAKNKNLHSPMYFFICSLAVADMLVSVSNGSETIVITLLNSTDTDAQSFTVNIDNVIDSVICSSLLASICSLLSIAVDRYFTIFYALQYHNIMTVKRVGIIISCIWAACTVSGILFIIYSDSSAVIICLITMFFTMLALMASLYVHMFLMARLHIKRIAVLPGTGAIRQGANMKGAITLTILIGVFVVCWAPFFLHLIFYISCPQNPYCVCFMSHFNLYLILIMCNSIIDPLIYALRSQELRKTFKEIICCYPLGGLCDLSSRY
Target sequence in this assay (P32121 whole entry partner): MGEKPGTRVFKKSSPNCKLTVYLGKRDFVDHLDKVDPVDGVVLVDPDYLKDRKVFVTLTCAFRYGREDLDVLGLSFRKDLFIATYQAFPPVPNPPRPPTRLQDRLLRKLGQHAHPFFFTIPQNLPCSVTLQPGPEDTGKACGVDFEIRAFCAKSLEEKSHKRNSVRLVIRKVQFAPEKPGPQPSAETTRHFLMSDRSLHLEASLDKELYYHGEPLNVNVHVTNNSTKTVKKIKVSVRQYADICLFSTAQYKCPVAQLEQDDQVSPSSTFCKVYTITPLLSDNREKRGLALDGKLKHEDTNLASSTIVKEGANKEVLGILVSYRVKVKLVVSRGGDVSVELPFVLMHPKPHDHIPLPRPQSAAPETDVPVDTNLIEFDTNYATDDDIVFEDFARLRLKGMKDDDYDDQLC

[3] = molecular target: T2, mouse melanocortin 4 receptor (MC4R) (Mus musculus, UniProt P56450); assay: cAMP second messenger quantification assay (Cisbio HTRF cAMP Gs kit); assay type: cell-based; details: for Emax: HEK293, read-out: efficacy cAMP Emax ± SD
T2 construct: expressed in transfected cells; host or cells: HEK293 / HEK293T, transient transfection
Experimental: Figure 3 Functional cAMP assay of synthesized peptide analogues targeting MC4R. The accumulation of adenylyl cyclase-catalyzed cAMP of (A) tachylplesin-1-like peptides (Ta1LPs, green), (B) protegrin-4-like peptides ([…], pink), (C) arenicin-3-like peptides (Ar3LPs, orange), and (D) gomesin-like peptides (GoLPs, blue) was measured in HEK293 cells transiently expressing mouse melanocortin 4 receptor (MC4R). […] Data are from three independent experiments and are shown as mean ± SEM.
Assays were performed on cells transiently expressing mouse MC4R-EGFP. BamHI and SacI restriction sites were used to clone mouse MC4R N-terminally into a pEGFP-N1 vector. Peptide ligands were assayed for […] in a 384-well format and triplicate according to the Cisbio protocol. Briefly, 5 μL containing 10,000 cells per well was incubated with 5 μL of peptide solutions prepared 2× in 1× stimulation buffer. Following an incubation of peptide ligands at 37 °C for 30 min, d2-labeled cAMP and cryptate-labeled antibody (5 μL of each) were added to the mixture and further incubated for at least 1 h at room temperature. Subsequently, cAMP levels were quantified on a Flexstation 3 (Molecular Devices, San Jose, USA) using homogeneous time-resolved fluorescence resonance energy transfer and the ratio 665/620 nm. Samples were measured in technical triplicates.
Data analysis was performed with GraphPad Prism (GraphPad Software, San Diego). The potency (EC50) and maximum efficacy (Emax) values of peptide ligands were derived from functional data fitted to three- or four-parameter nonlinear regression curves constrained to a bottom of zero.

human MC4R [4] = molecular target: T1, human MC4R; assay: nanoluciferase complementation assay MC4R-LgBit / Gαs-SmBit (Gαs coupling); assay type: cell-based; details: for increase in efficacy in recruiting Gαs compared to α-MSH: nanoluciferase complementation MC4R-LgBit/Gαs-SmBit, normalized to α-MSH maximum response
Experimental: We proceeded with more detailed pharmacological characterization of Pr4LP1 and Ar3LP1 to gain more insights into the signaling pathways that follow MC4R stimulation.
as §4, §5
Target sequence in this assay (P32245 whole entry): as the sequence (P32245 whole entry) above

T2 sequence (P56450 whole entry): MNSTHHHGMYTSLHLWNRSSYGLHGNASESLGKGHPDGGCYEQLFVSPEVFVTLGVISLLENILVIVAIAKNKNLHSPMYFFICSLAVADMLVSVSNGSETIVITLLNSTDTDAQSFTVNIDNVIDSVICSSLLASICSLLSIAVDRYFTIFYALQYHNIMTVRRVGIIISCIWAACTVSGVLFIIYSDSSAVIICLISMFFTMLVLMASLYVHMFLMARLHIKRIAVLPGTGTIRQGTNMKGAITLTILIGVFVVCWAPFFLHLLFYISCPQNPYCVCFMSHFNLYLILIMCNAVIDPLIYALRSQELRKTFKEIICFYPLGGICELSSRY

In the case of `CC(C)[C@@H]1NC(=O)[C@H](Cc2ccc(O)cc2)NC(=O)[C@H](Cc2c[nH]c3ccccc23)NC(=O)[C@@H](NC(=O)[C@H](Cc2ccccc2)NC(=O)CN)CSSC[C@@H](C(=O)N[C@@H](CC(N)=O)C(N)=O)NC(=O)[C@H](CCCNC(=N)N)NC(=O)[C@H](CCCNC(=N)N)NC(=O)[C@H](Cc2ccc(O)cc2)NC(=O)[C@@H]2CSSC[C@H](NC1=O)C(=O)N1CCC[C@H]1C(=O)N[C@@H](Cc1c[nH]cn1)C(=O)N[C@H](Cc1ccccc1)C(=O)N[C@@H](Cc1c[nH]cn1)C(=O)N[C@@H](Cc1c[nH]c3ccccc13)C(=O)N2` [Ar3LP1] (H-GFCWYVCPH[dF]HWCYRRCN-NH2; disulfide 3-17, 7-13), the “cAMP response at MC4R (RLU)” value (human MC4R [1]) is reported as “activate the receptor”, the “cAMP response at MC1R (RLU)” value (human MC1R) is reported as “no response” and the “cAMP response at MC3R (RLU)” value (human MC3R) is reported as “no response”. For the same compound, the “selectivity in recruiting β-arrestin-2” value (MC4R over MC1R and MC3R) was “selective for MC4R over MC1R and MC3R”, the EC50 (human MC4R [2]) was 25.2 nM and the “increased potency in β-arrestin-2 recruitment as compared to α-MSH” value (human MC4R [2]) was “approximately 20 fold”. The Emax (human MC4R [2]) was 82%, the EC50 [3] was 1 nM and the Emax [3] was 98 ± 4%. For the same compound, the EC50 (human MC4R [4]) was 0.702 nM and the “increase in efficacy in recruiting Gαs compared to α-MSH” value (human MC4R [4]) was 25%.
In the case of `CC(C)C[C@H](NC(=O)[C@H](CCCNC(=N)N)NC(=O)CNC(=O)CNC(=O)[C@@H](N)CCCNC(=N)N)C(=O)N[C@H]1CSSC[C@@H](C(=O)N[C@H](C(=O)NCC(=O)N[C@@H](CCCNC(=N)N)C(N)=O)C(C)C)NC(=O)[C@H](Cc2ccccc2)NC(=O)[C@@H]2CSSC[C@H](NC(=O)[C@H](Cc3ccc(O)cc3)NC1=O)C(=O)N1CCC[C@H]1C(=O)N[C@@H](Cc1c[nH]cn1)C(=O)N[C@H](Cc1ccccc1)C(=O)N[C@@H](Cc1c[nH]cn1)C(=O)N[C@@H](Cc1c[nH]c3ccccc13)C(=O)N2` [Pr4LP1] (H-RGGRLCYCPH[dF]HWCFCVGR-NH2; disulfide 6-16, 8-14), the “cAMP response at MC4R (RLU)” value (human MC4R [1]) is reported as “activate the receptor”, the “cAMP response at MC1R (RLU)” value (human MC1R) is reported as “no response” and the “cAMP response at MC3R (RLU)” value (human MC3R) is reported as “no response”. The “selectivity in recruiting β-arrestin-2” value (MC4R over MC1R and MC3R) was “selective for MC4R over MC1R and MC3R”, the EC50 (human MC4R [2]) was 23.5 nM and the “increased potency in β-arrestin-2 recruitment as compared to α-MSH” value (human MC4R [2]) was “approximately 20 fold”. It also gave an Emax (human MC4R [2]) of 99%, an EC50 [3] of 3.98 nM and an Emax [3] of 96 ± 3%. The EC50 (human MC4R [4]) was 0.193 nM and the “increase in efficacy in recruiting Gαs compared to α-MSH” value (human MC4R [4]) was 8.8%.

Source: paper PMC10580383, “Development of Melanocortin 4 Receptor Agonists by Exploiting Animal-Derived Macrocyclic, Disulfide-Rich Peptide Scaffolds” (ACS Pharmacology & Translational Science, 2023)
